One test deals with T1, KRas^G12D (Homo sapiens, UniProt P01116, G12D).
T1 construct: Biotinylated KRas (corresponding to amino acids 1-169, produced at Accelegan Inc.); biotin (biotinylated); purchased Accelegan Inc
In words: KRas binding assay (TR-FRET tracer displacement), KRas G12D.

A further test deals with T2, KRas^G12R (Homo sapiens, UniProt P01116, G12R).
T2 construct: Biotinylated KRas (corresponding to amino acids 1-169, produced at Accelegan Inc.); biotin (biotinylated); purchased Accelegan Inc
T2 sequence (P01116 1-169 isoform P01116-2 G12R): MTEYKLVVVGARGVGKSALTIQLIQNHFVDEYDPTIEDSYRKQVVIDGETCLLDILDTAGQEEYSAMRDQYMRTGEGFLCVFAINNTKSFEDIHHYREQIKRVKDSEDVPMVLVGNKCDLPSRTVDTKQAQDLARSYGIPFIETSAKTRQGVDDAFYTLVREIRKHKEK
In words: KRas binding assay (TR-FRET tracer displacement), KRas G12R.

In another test the target is T3, KRas^G12V (Homo sapiens, UniProt P01116, G12V).
T3 construct: Biotinylated KRas (corresponding to amino acids 1-169, produced at Accelegan Inc.); biotin (biotinylated); purchased Accelegan Inc
T3 sequence (P01116 1-169 isoform P01116-2 G12V): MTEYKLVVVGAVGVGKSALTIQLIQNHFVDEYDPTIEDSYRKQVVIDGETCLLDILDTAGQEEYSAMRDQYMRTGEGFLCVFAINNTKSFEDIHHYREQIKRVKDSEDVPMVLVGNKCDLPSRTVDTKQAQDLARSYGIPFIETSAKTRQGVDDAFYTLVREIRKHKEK
In words: KRas binding assay (TR-FRET tracer displacement), KRas G12V.

In test [1] the test system is KRas-mediated phosphorylation of ERK in AsPC-1 cells. As to the kind of experiment: Inhibition of KRas-mediated phosphorylation of ERK (Cisbio HTRF pERK), AsPC-1 cells. The format is cell-based. The settings on record: Homo sapiens, ASPC1, AsPC-1 cells; HTRF pERK. Here is the method:
(§1) Inhibition of KRas Phosphorylation of ERK (HTRF) by Exemplary Compounds of Formula (I) Cisbio HTRF Advanced PERK Assay Catalog #64[…] […] Add 10 mL of media to stop trypsinizing. Pipette the cells into a conical bottom 50 mL centrifuge tube and centrifuge 5 min×1000 rpm. […] Re-suspend the cell pellet in media, take a cell count, and then adjust the cell density using fresh media. […] Seed 6,000 cells into cell culture plate with 50 μL media. […] Use Tecan to complete the compound addition. Compounds start from 10 uM top, 3-fold dilution, and 10 doses. The final DMSO concentration is 0.8%. Dispensed 0.2 uM Trametinib as Min control. […] Incubate cell plate for 3 hrs in the incubator. […] Dilute 1 volume of 4× lysis buffer with 3 volumes of deionized water. […] Keep lysis buffer on the ice. […] At the end of the compound treatment, flick-off the media. […] Add 35 μL of lysis buffer per well using a Multidrop Combi. Then place on a plate agitator shaking at 300 rpm at 4° C. for 40 mins. […] Make up the HTRF antibody buffer. For each assay plate, mix 50 μL of d2-conjugate antibody with 950 μL of detection buffer. Similarly, mix 50 μL of Cryptate antibody with 950 μL of detection buffer. Then mix the two diluted antibodies together. […] Dispense 3.4 μL the antibody buffer to wells of an empty assay plate. Seal the plate and centrifuge plate 30 sec×1000 rpm. […] At the end of the 4° C. lysis, centrifuge the lysate plates 3 mins×1500 rpm. […] Use the Bravo to transfer 13.6 μL of lysate from cell culture plate to assay plate. Then incubate assay plate for 2 hrs at room temperature. 8. At the end of incubation, read plate on the Envision after centrifuging plate 30 sec×1000 rpm.

Test [2] has as its system KRas-mediated phosphorylation of ERK in H727 cells. In words: Inhibition of KRas-mediated phosphorylation of ERK (Cisbio HTRF pERK), H727 cells. The format is cell-based. Particulars: Homo sapiens, NCI-H727, H727 cells; HTRF pERK. As for the experimental part: as §1

Experimental findings from US20260015350A1, “AZAQUINAZOLINE PAN-KRAS INHIBITORS” (Mirati Therapeutics, Inc., priority 2022, published 2026) are described below.

T1 sequence (P01116 1-169 isoform P01116-2 G12D): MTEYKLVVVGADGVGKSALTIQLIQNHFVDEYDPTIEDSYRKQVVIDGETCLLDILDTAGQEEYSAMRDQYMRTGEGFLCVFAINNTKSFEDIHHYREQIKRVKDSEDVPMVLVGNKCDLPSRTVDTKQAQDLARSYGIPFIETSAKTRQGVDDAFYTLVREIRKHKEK

Regarding `O[C@H]1CCCN(c2nc(OCC34CCCN3CCC4)nc3c(F)c(-c4cccc5cccc(Cl)c45)ncc23)C1` [Example 903, (S)-1-(7-(8-chloronaphthalen-1-yl)-8-fluoro-2-((tetrahydro-1H-pyrrolizin-7a(5H)-yl)methoxy)pyrido[4,3-d]pyrimidin-4-yl) piperidin-3-ol], the half-maximal inhibitory concentration (IC50) was determined as 9830 nM on KRas^G12D, 11200 nM on KRas^G12R and 15100 nM at KRas^G12V.

In the case of `Fc1c(-c2cccc3cccc(F)c23)ncc2c(C3=CCCCC3)nc(OCC34CCCN3CCC4)nc12` [Example 524, 4-(cyclohex-1-en-1-yl)-8-fluoro-7-(8-fluoronaphthalen-1-yl)-2-((hexahydro-1H-pyrrolizin-7a-yl)methoxy)pyrido[4,3-d]pyrimidine], the IC50 at KRas^G12D is greater than 100000 nM; on KRas^G12R, greater than 100000 nM; at KRas^G12V it was 70900 nM.

Consider `CCc1c(F)ccc2cc(O)cc(-c3ncc4c(N5CCN(C)C[C@]6(C)CCC[C@@H]56)nc(OC[C@@]56CCCN5C[C@H](F)C6)nc4c3F)c12` [Example 866, 4-(4-((5aS,8aR)-4,5a-dimethyloctahydrocyclopenta[e][1,4]diazepin-1(2H)-yl)-8-fluoro-2-(((2R,7aS)-2-fluorotetrahydro-1H-pyrrolizin-7a(5H)-yl)methoxy)pyrido[4,3-d]pyrimidin-7-yl)-5-ethyl-6-fluoronaphthalen-2-ol], for which the IC50 was 102 nM on KRas^G12D, 7350 nM on KRas^G12R and 3530 nM at KRas^G12V.

For the compound `CCc1c(F)ccc2cccc(-c3ncc4c(N5C[C@@H]6C[C@H](C5)[C@H](O)C6)nc(OC[C@@]56CCCN5C[C@H](F)C6)nc4c3F)c12` [Example 754, (1R,5R,6R)-3-(7-(8-ethyl-7-fluoronaphthalen-1-yl)-8-fluoro-2-(((2R,7aS)-2-fluorohexahydro-1H-pyrrolizin-7a-yl)methoxy)pyrido[4,3-d]pyrimidin-4-yl)-3-azabicyclo[3.2.1]octan-6-ol], the results for the IC50 in test [1] and in test [2] were 747 nM and 516 nM, respectively.

Consider `O=S1(=O)NCC2(CCCN(c3nc(OCC45CCCN4CCC5)nc4c(F)c(-c5cccc6cccc(CO)c56)ncc34)C2)N1` (centres unmarked) [Example 906, 7-(8-fluoro-7-(8-(hydroxymethyl)naphthalen-1-yl)-2-((tetrahydro-1H-pyrrolizin-7a(5H)-yl)methoxy)pyrido[4,3-d]pyrimidin-4-yl)-2-thia-1,3,7-triazaspiro[4.5]decane 2,2-dioxide], for which the values for the IC50 at KRas^G12D, on KRas^G12R and at KRas^G12V were 66 nM, 646 nM and 247 nM, respectively.

Take `CCc1c(F)ccc2cc(O)cc(-c3ncc4c(N5CC6OCCN(C(C)=O)C6C5)nc(OC[C@@]56CCCN5C[C@H](F)C6)nc4c3F)c12` (stereo partly drawn) [Example 623, 1-(6-(7-(8-ethyl-7-fluoro-3-hydroxynaphthalen-1-yl)-8-fluoro-2-(((2R,7aS)-2-fluorotetrahydro-1H-pyrrolizin-7a(5H)-yl)methoxy)pyrido[4,3-d]pyrimidin-4-yl)hexahydropyrrolo[3,4-b][1,4]oxazin-4(4aH)-yl) ethan-1-one]: the IC50 in test [1] and in test [2] was greater than 10000 nM each time.

On to `CCc1c(F)ccc2cc(O)cc(-c3ncc4c(NCc5cc(C(=O)N(C)C)n(CC6COC6)n5)nc(OC[C@@]56CCCN5C[C@H](F)C6)nc4c3F)c12` [Example 684A, 3-(((7-(8-ethyl-7-fluoro-3-hydroxynaphthalen-1-yl)-8-fluoro-2-(((2R,7aS)-2-fluorohexahydro-1H-pyrrolizin-7a-yl)methoxy)pyrido[4,3-d]pyrimidin-4-yl)amino)methyl)-N,N-dimethyl-1-(oxetan-3-ylmethyl)-1H-pyrazole-5-carboxamide], for which the IC50 in test [1] and in test [2] was greater than 10000 nM in each case.

For `CCc1c(F)ccc2cc(O)cc(-c3ncc4c(NCc5c[nH]nc5NC(=O)C5COC5)nc(OC[C@@]56CCCN5C[C@H](F)C6)nc4c3F)c12` [Example 649, N-(4-(((7-(8-ethyl-7-fluoro-3-hydroxynaphthalen-1-yl)-8-fluoro-2-(((2R,7aS)-2-fluorohexahydro-1H-pyrrolizin-7a-yl)methoxy)pyrido[4,3-d]pyrimidin-4-yl)amino)methyl)-1H-pyrazol-3-yl) oxetane-3-carboxamide], the half-maximal inhibitory concentration (IC50) on KRas^G12D was 85 nM; at KRas^G12R, 38 nM; on KRas^G12V, 9 nM.

Regarding `CCc1c(F)ccc2cc(O)cc(-c3ncc4c(NCc5cc(C(=O)N(C)C)n(CC#N)n5)nc(OC[C@@]56CCCN5C[C@H](F)C6)nc4c3F)c12` [Example 658, 1-(cyanomethyl)-3-(((7-(8-ethyl-7-fluoro-3-hydroxynaphthalen-1-yl)-8-fluoro-2-(((2R,7aS)-2-fluorotetrahydro-1H-pyrrolizin-7a(5H)-yl)methoxy)pyrido[4,3-d]pyrimidin-4-yl)amino)methyl)-N,N-dimethyl-1H-pyrazole-5-carboxamide], the results for the IC50 on KRas^G12D, at KRas^G12R and on KRas^G12V were 224 nM, 65 nM and 7 nM, respectively.

Consider `CCc1c(F)ccc2cc(O)cc(-c3ncc4c(NCc5cc(C(=O)N(C)C)nn5CC5COC5)nc(OC[C@@]56CCCN5C[C@H](F)C6)nc4c3F)c12` [Example 683, 5-(((7-(8-ethyl-7-fluoro-3-hydroxynaphthalen-1-yl)-8-fluoro-2-(((2R,7aS)-2-fluorohexahydro-1H-pyrrolizin-7a-yl)methoxy)pyrido[4,3-d]pyrimidin-4-yl)amino)methyl)-N,N-dimethyl-1-(oxetan-3-ylmethyl)-1H-pyrazole-3-carboxamide], for which the IC50 in test [1] and in test [2] was greater than 10000 nM throughout.

Turning to `CCc1c(F)ccc2cc(O)cc(-c3ncc4c(NCc5cc(C(=O)N(C)C)nn5CCC#N)nc(OC[C@@]56CCCN5C[C@H](F)C6)nc4c3F)c12` [Example 669, 1-(2-cyanoethyl)-5-(((7-(8-ethyl-7-fluoro-3-hydroxynaphthalen-1-yl)-8-fluoro-2-(((2R,7aS)-2-fluorohexahydro-1H-pyrrolizin-7a-yl)methoxy)pyrido[4,3-d]pyrimidin-4-yl)amino)methyl)-N,N-dimethyl-1H-pyrazole-3-carboxamide], the half-inhibitory concentration (IC50) in test [1] was greater than 10000 nM; in test [2] it was 4510 nM.

Regarding `CCc1c(F)ccc2cc(O)cc(-c3ncc4c(NCc5cc(C(=O)N(C)C)n(C6CS(=O)(=O)C6)n5)nc(OC[C@@]56CCCN5C[C@H](F)C6)nc4c3F)c12` [Example 692, 1-(1,1-dioxidothietan-3-yl)-3-(((7-(8-ethyl-7-fluoro-3-hydroxynaphthalen-1-yl)-8-fluoro-2-(((2R,7aS)-2-fluorohexahydro-1H-pyrrolizin-7a-yl)methoxy)pyrido[4,3-d]pyrimidin-4-yl)amino)methyl)-N,N-dimethyl-1H-pyrazole-5-carboxamide], the values for the IC50 in test [1] and in test [2] were greater than 10000 nM and 7030 nM, respectively.

Turning to `CCc1c(F)ccc2cc(O)cc(-c3ncc4c(N5CCCC(C6CCNC6=O)C5)nc(OC[C@@]56CCCN5C[C@H](F)C6)nc4c3F)c12` (stereo partly drawn) [Example 616, 3-(1-(7-(8-ethyl-7-fluoro-3-hydroxynaphthalen-1-yl)-8-fluoro-2-(((2R,7aS)-2-fluorohexahydro-1H-pyrrolizin-7a-yl)methoxy)pyrido[4,3-d]pyrimidin-4-yl)piperidin-3-yl)pyrrolidin-2-one], the IC50 turned out to be 3620 nM in test [1] and 1140 nM in test [2].
